According to US11667632B2, “2-(1H-indazol-3-yl)-3H-imidazo[4,5-C]pyridines and their anti-inflammatory uses thereof” (BioSplice Therapeutics, Inc., priority 2015, dated 2023):
pEC50: −log10 of the molar value. Marks after values point to notes of the source that are not given here.

Columns and labels:
[1] = Slurry experiments in various solvents (polymorph screen); type: physicochemical
Protocol: Slurry experiments in various solvents were performed. Approximately 30-80 mg of the starting solid (a non-stoichiometric hydrate of Form 1 having between […] and about 20% by weight water) was slurried in 39 different solvents (pure and binary solvents; the ratio of organic solvent/water (V/V) was […]) at RT and 50° C. for 5 days. Three solvates, one non-stoichiometric hydrate, and eleven non-solvated forms were identified. […] XRD of both wet and dry samples were scanned (FIG. 12A (dry sample)).
The slurry experiments identified 3 solvated forms from wet samples (Solvates 1, 2, and 3); 2 non-stoichiometric hydrates of Form 1 (Forms 12 and 13); and 11 non-solvated forms (Forms 1-11). In some instances, similar XRD scans with minor differences were obtained. These were considered to be part of the same class (e.g., the same form). For example, XRD scans of Form 2 and Form 2* were similar and were considered to belong to the same class. The solvated forms were obtained from wet sample analysis; after drying, the sample indicated a different XRD.
Solvate 1 was obtained from acetone at RT, and after drying, a low crystallinity solid was generated. Solvate 2 was obtained from acetone (at RT) and acetone/water (at RT), and after drying, Form 4** was generated. Solvate 3 was obtained from EtOH/water at RT, and after drying, Form 2 was generated.

[2] = Dynamic vapor sorption (DVS) scan; type: physicochemical; conditions: for water absorption (DVS scan): at 90% RH
Description: The purity of the Form 13 sample was 98.8%; the KF of an undried Form 13 sample was 35.7%.

[3] = Competitive slurry experiments between polymorph forms (thermodynamic stability); type: physicochemical; conditions: slurried 3-5 days, XRD
Protocol: In order to find out the thermodynamic stability between the different forms, several competitive slurry experiments were carried out. Form 1, Form 2, Form 2*, Form 3, Form 4, Form 4*, Form 4**, Form 5, Form 7, Form 8, Form 9, Form 10, Form 11, Form 11*, and Form 13 (10 mg for each) was mixed and slurried in 2 mL of solvent at both RT and 50° C. The solids were slurried for 3-5 days and then analyzed by XRD.
In order to find out the thermodynamic stability between Form 13 and Form 9, several competitive slurry experiments were carried out. 15 mg of Form 1, Form 9 and Form 13 solid were mixed in 1 mL of toluene, IPAc, and n-butyl acetate, and slurried for 3 days at RT and 50° C.
The residual solid was analyzed by XRD.

[4] = system: IL-6; experiment: Inhibition of IL-6 in LPS-stimulated human monocyte cells (THP-1), HTRF; type: cell-based; conditions: Homo sapiens; THP-1 cells, LPS 500 ng/mL, IL-6 by HTRF
Protocol: Human Monocyte Cell Culture: A human monocyte cell line (THP-1 cells; Catalog #TIB-202, ATCC, Manassas, Va.) was cultured in Roswell Park Memorial Institute (RPMI) 1640 Medium (Catalog #21870-100, Buffalo, N.Y.) with 1% L-glutamine, 1% HEPES, 1% sodium pyruvate, 2% sodium bicarbonate supplemented with 100 units/mL penicillin, 50 μg/mL streptomycin, 2-mercaptoethanol (0.05 mM) [basal medium] and 10% fetal bovine serum (Catalog #16140089, Life Technologies, Carlsbad, Calif.) at 37° C. and 5% CO2.
Compound Screening: THP-1 cells were cultured in basal media with 1% FBS for 24 hours before the start of the assay. Each compound of Formula (I) was dissolved in DMSO as a 10 mM stock and used to prepare compound source plates. Serial dilution (1:3, 10-point dose-response curves starting from 10 μM) and compound transfer was performed using the ECHO 550 (Labcyte, Sunnyvale, Calif.) into 384-well white low volume assay plates (Greiner Bio-One) with appropriate DMSO backfill for a final DMSO concentration of 0.1%. THP-1 cells were plated at 5000 cells/well in the 384-well plates and incubated at 37° C. for 2 h. 500 ng/mL of LPS was added after 2 hours and cells were incubated for another 22 hours at 37° C. Plates were spun in a centrifuge for 1 minute at 10,000 rpm and a mixture of anti-IL-6 XL665, and anti-IL-6 Cryptate diluted in reconstitution buffer (Cisbio Inc.) was added to each well. Following incubation for 3 hrs at room temperature, homogeneous time-resolved fluorescence (HTRF) was measured using the Envision (Perkin Elmer) at 665 nm and […]. The ratio of fluorescence at 665 nm to 620 nm was used as a readout for IL-6 quantification. All samples were processed in duplicate. Readings were normalized to DMSO treated cells and normalized activities were utilized for EC50 calculations using the dose-response log (inhibitor) vs. response -variable slope (four parameters) nonlinear regression feature available in GraphPad Prism 5.0 (or Dotmatics). For EC50 of >10 μM, the percent inhibition at 10 μM is provided.

[5] = slurry in Acetone/water (5% water), RT
[6] = slurry in Acetonitrile/water (5% water), RT
[7] = slurry in EA/water (5% water), RT
[8] = slurry in Heptane/water (5% water), RT
[9] = slurry in IPAc/water (5% water), RT
[10] = slurry in MA/water (5% water), 50° C.
[11] = slurry in MIBK/water (5% water), RT
[12] = slurry in MeOH/water (5% water), RT
[13] = slurry in MtBE/water (5% water), RT
[14] = slurry in n-Butyl acetate/water (5% water), RT
[15] = slurry in EtOH/water (5% water), RT
[16] = slurry in Acetonitrile/water (5% water), 50° C.
[17] = slurry in DCM/water (5% water), 50° C.
[18] = slurry in DCM/water (5% water), RT
[19] = slurry in Heptane/water (5% water), 50° C.
[20] = slurry in IPAc/water (5% water), 50° C.
[21] = slurry in MA/water (5% water), RT
[22] = slurry in MIBK/water (5% water), 50° C.
[23] = slurry in MeOH/water (5% water), 50° C.
[24] = slurry in MtBE/water (5% water), 50° C.
[25] = slurry in Toluene/water (5% water), 50° C.
[26] = slurry in Toluene/water (5% water), RT
[27] = slurry in n-Butanol/water (5% water), 50° C.
[28] = slurry in n-Butanol/water (5% water), RT
[29] = slurry in n-Butyl acetate/water (5% water), 50° C.

Structure (SMILES): CC(C)CC(=O)Nc1cncc(-c2ccc3[nH]nc(-c4nc5c(-c6cccc(F)c6)cncc5[nH]4)c3c2)c1 [Solvate 2]
- Form, Dry ([1]; slurry in Acetone, 50° C.): Form 4**
- Form, Wet ([1]; slurry in Acetone, 50° C.): Solvate 2
- Form, Dry [1, 5]: Form 4**
- Form, Wet [1, 5]: Solvate 2

Structure (SMILES): CC(C)CC(=O)Nc1cncc(-c2ccc3[nH]nc(-c4nc5c(-c6cccc(F)c6)cncc5[nH]4)c3c2)c1 [Form 9]
- change of form before and after the DVS scan [2]: did not change its form
- water absorption (DVS scan) [2]: 0.8%

Structure (SMILES): CC(C)CC(=O)Nc1cncc(-c2ccc3[nH]nc(-c4nc5c(-c6cccc(F)c6)cncc5[nH]4)c3c2)c1 [Solvate 1]
- Form, Dry ([1]; slurry in Acetone, RT): Low
- Form, Wet ([1]; slurry in Acetone, RT): Solvate 1

Structure (SMILES): CN1CCN(c2cncc3[nH]c(-c4n[nH]c5ccc(-c6cccnc6)cc45)nc23)CC1 [4*]
- thermodynamic stability between forms (competitive slurry) ([3]; EA at RT and 50° C.): most stable
- pEC50 [4]: 7.13

Structure (SMILES): CC(C)CC(=O)Nc1cncc(-c2ccc3[nH]nc(-c4nc5c(-c6cccc(F)c6)cncc5[nH]4)c3c2)c1 [Form 12]
- Form, Dry [1, 6]: Form 1
- Form, Wet [1, 6]: Form 12
- Form, Dry [1, 7]: Form 1
- Form, Wet [1, 7]: Form 12
- Form, Dry [1, 8]: Form 12
- Form, Wet [1, 8]: Form 13
- Form, Dry [1, 9]: Form 1
- Form, Wet [1, 9]: Form 12
- Form, Dry [1, 10]: Form 4
- Form, Wet [1, 10]: Form 12
- Form, Dry [1, 11]: Form 1
- Form, Wet [1, 11]: Form 12
- Form, Dry [1, 12]: Form 1
- Form, Wet [1, 12]: Form 12
- Form, Dry [1, 13]: Form 1
- Form, Wet [1, 13]: Form 12
- Form, Dry [1, 14]: Form 12
- Form, Wet [1, 14]: Form 13

Structure (SMILES): CC(C)CC(=O)Nc1cncc(-c2ccc3[nH]nc(-c4nc5c(-c6cccc(F)c6)cncc5[nH]4)c3c2)c1 [Solvate 3]
- Form, Dry [1, 15]: Form 2
- Form, Wet [1, 15]: Solvate 3

Structure (SMILES): CC(C)CC(=O)Nc1cncc(-c2ccc3[nH]nc(-c4nc5c(-c6cccc(F)c6)cncc5[nH]4)c3c2)c1 [Form 13]
- Form, Dry [1, 16]: Form 13
- Form, Wet [1, 16]: Form 13
- Form, Dry ([1]; slurry in DCM, 50° C.): Form 13
- Form, Wet ([1]; slurry in DCM, 50° C.): Form 13
- Form, Dry [1, 17]: Form 1
- Form, Wet [1, 17]: Form 13
- Form, Dry [1, 18]: Form 1
- Form, Wet [1, 18]: Form 13
- Form, Dry ([1]; slurry in Heptane, 50° C.): Form 13
- Form, Wet ([1]; slurry in Heptane, 50° C.): Form 13
- Form, Dry [1, 19]: Form 1
- Form, Wet [1, 19]: Form 13
- Form, Dry [1, 8]: Form 12
- Form, Wet [1, 8]: Form 13
- Form, Dry [1, 20]: Form 13
- Form, Wet [1, 20]: Form 13
- Form, Dry [1, 21]: Form 1
- Form, Wet [1, 21]: Form 13
- Form, Dry [1, 22]: Form 1
- Form, Wet [1, 22]: Form 13
- Form, Dry ([1]; slurry in MeOH, RT): Form 1
- Form, Wet ([1]; slurry in MeOH, RT): Form 13
- Form, Dry [1, 23]: Form 13
- Form, Wet [1, 23]: Form 13
- Form, Dry [1, 24]: Form 13
- Form, Wet [1, 24]: Form 13
- Form, Dry [1, 25]: Form 13
- Form, Wet [1, 25]: Form 13
- Form, Dry [1, 26]: Form 1
- Form, Wet [1, 26]: Form 13
- Form, Dry [1, 27]: Form 1
- Form, Wet [1, 27]: Form 13
- Form, Dry [1, 28]: Form 13
- Form, Wet [1, 28]: Form 13
- Form, Dry [1, 29]: Form 1
- Form, Wet [1, 29]: Form 13
- Form, Dry [1, 14]: Form 12
- Form, Wet [1, 14]: Form 13
- Form, Dry ([1]; slurry in water, 50° C.): Form 13
- Form, Wet ([1]; slurry in water, 50° C.): Form 13
- Form, Dry ([1]; slurry in water, RT): Form 1
- Form, Wet ([1]; slurry in water, RT): Form 13
- thermodynamic stability between forms (competitive slurry) ([3]; water at RT and 50° C.): most stable
- water absorption (DVS scan) [2]: 17%

Structure (SMILES): CC(C)CC(=O)Nc1cncc(-c2ccc3[nH]nc(-c4nc5c(-c6cccc(F)c6)cncc5[nH]4)c3c2)c1 [Form 1]
- water absorption (DVS scan) [2]: 17%

Structure (SMILES): CN(C)Cc1cncc(-c2ccc3[nH]nc(-c4nc5c(-c6cncc(F)c6)cncc5[nH]4)c3c2)c1 [Compound 16]
- pEC50 [4]: 6.87

Structure (SMILES): CC(C)(C)C(=O)Nc1cncc(-c2ccc3[nH]nc(-c4nc5c(-c6ccoc6)cncc5[nH]4)c3c2)c1 [Compound 319]
- pEC50 [4]: 7.11

Structure (SMILES): CC(C)CC(=O)Nc1cncc(-c2ccc3[nH]nc(-c4nc5c(-c6ccc(F)cc6)cncc5[nH]4)c3c2)c1 [Compound 12]
- pEC50 [4]: 7.35

Structure (SMILES): CN1CCN(c2cncc3[nH]c(-c4n[nH]c5ccc(-c6cncc(NC(=O)Cc7ccccc7)c6)cc45)nc23)CC1 [Compound 252]
- pEC50 [4]: 6.12
